According to patent US10239861B2, “Therapeutic compounds and uses thereof” (GENENTECH, INC., priority 2015, dated 2019):

Target: PCAF bromodomain (His/Flag epitope tagged PCAF719-832) (Homo sapiens (Human), UniProt Q92831)
Assay: PCAF AlphaLisa binding assay
Settings: not given
Method: IC50 Measurements for Inhibitors Using PCAF AlphaLisa Binding Assay
PCAF bromodomain binding and inhibition of the compounds disclosed herein was assessed by monitoring the engagement of biotinylated small molecule ligand (known to bind to the PCAF bromodomain) with the target using the AlphaLisa technology (Perkin-Elmer).

Chain of PCAF bromodomain (His/Flag epitope tagged PCAF719-832) (Q92831 719-832): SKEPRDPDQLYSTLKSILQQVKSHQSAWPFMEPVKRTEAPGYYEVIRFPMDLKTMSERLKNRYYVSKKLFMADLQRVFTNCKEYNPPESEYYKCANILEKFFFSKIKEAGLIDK

SMILES	IC50 [nM]
Cn1ncc(NC2CN3CCC2CC3)c(Cl)c1=O (racemic) [Example 10, (racemic)-4-chloro-2-methyl-5-(quinuclidin-3-ylamino)pyridazin-3(2H)-one]	975

Same assay, conditions: AlphaLisa; PCAF bromodomain 225 nM, biotinylated small molecule ligand 6 nM; read-out: PCAF IC50

IC50 [nM]	SMILES
155	CN1CCCCCC(Nc2cnn(C)c(=O)c2Cl)C1 (centres unmarked) [Example 40, 4-chloro-2-methyl-5-((1-methylazocan-3-yl)amino)pyridazin-3(2H)-one]
187	CN1CCCC(Nc2cnn(C)c(=O)c2Cl)CC1 (racemic) [Example 4, (racemic)-4-chloro-2-methyl-5-((1-methylazepan-4-yl)amino)pyridazin-3(2H)-one]
671	C[C@H](c1ccccc1)N1CCCC(Nc2cnn(C)c(=O)c2Cl)C1 (stereo partly drawn) [Example 35, 4-chloro-2-methyl-5-((1-((R)-1-phenylethyl)piperidin-3-yl)amino)pyridazin-3(2H)-one]
407	CCn1ncc(NC2CCCCN(C)C2)c(Cl)c1=O (centres unmarked) [Example 15, 4-chloro-2-ethyl-5-((1-methylazepan-3-yl)amino)pyridazin-3(2H)-one]
1410	Cn1ccnc1CN1CCCC(Nc2cnn(C)c(=O)c2Cl)C1 (centres unmarked) [Example 52, 4-chloro-2-methyl-5-((1-((1-methyl-1H-imidazol-2-yl)methyl)piperidin-3-yl)amino)pyridazin-3(2H)-one]
34.8	C[C@@H]1CC[C@@H](Nc2cnn(C)c(=O)c2Cl)CN1C (stereo in doubt) [Example 26, 4-chloro-5-((1,6-dimethylpiperidin-3-yl)amino)-2-methylpyridazin-3(2H)-one]
1220	Cn1ncc(NC2CCCN(C3COC3)C2)c(Cl)c1=O (centres unmarked) [Example 31, 4-chloro-2-methyl-5-((1-(oxetan-3-yl)piperidin-3-yl)amino)pyridazin-3(2H)-one]
386	Cn1ncc(NC2CCCN(Cc3ccc(-n4ccnc4)cc3)C2)c(Cl)c1=O (centres unmarked) [Example 45, 4-chloro-5-[[1-[(4-imidazol-1-ylphenyl)methyl]-3-piperidyl]amino]-2-methyl-pyridazin-3-one]
631	C[C@@H](c1ccccc1)N1CCCC(Nc2cnn(C)c(=O)c2Cl)C1 (stereo partly drawn) [Example 36, 4-chloro-2-methyl-5-((1-((S)-1-phenylethyl)piperidin-3-yl)amino)pyridazin-3(2H)-one]
1000	Cn1ncc(NC2CCCN(Cc3c(F)cccc3F)C2)c(Cl)c1=O (centres unmarked) [Example 42, 4-chloro-5-((1-(2,6-difluorobenzyl)piperidin-3-yl)amino)-2-methylpyridazin-3(2H)-one]
169	CN1CCCC[C@@H](Nc2cnn(C)c(=O)c2Cl)C1 [Example 58, (R)-4-chloro-2-methyl-5-((1-methylazepan-3-yl)amino)pyridazin-3(2H)-one]
139	Cn1ncc(NC2CCCN(Cc3ccc(F)cc3)C2)c(Cl)c1=O (centres unmarked) [Example 56, 4-chloro-5-[[1-[(4-fluorophenyl)methyl]-3-piperidyl]amino]-2-methyl-pyridazin-3-one]
32.9	CN1CCCC[C@H](Nc2cnn(C)c(=O)c2Cl)C1 [Example 57, (S)-4-chloro-2-methyl-5-((1-methylazepan-3-yl)amino)pyridazin-3(2H)-one]
310	CN(C)c1ccc(CN2CCCC(Nc3cnn(C)c(=O)c3Cl)C2)cc1 (centres unmarked) [Example 43, 4-chloro-5-[[1-[(4-dimethylaminophenyl)methyl]-3-piperidyl]amino]-2-methyl-pyridazin-3-one]
625	Cn1ncc(NC2CCCN(Cc3cncnc3)C2)c(Cl)c1=O (centres unmarked) [Example 50, 4-chloro-2-methyl-5-[[1-(pyrimidin-5-ylmethyl)-3-piperidyl]amino]pyridazin-3-one]
94.9	Cn1ncc(NC2CCCN(Cc3cccc(OC(F)F)c3)C2)c(Cl)c1=O (centres unmarked) [Example 44, 4-chloro-5-[[1-[[3-(difluoromethoxy)phenyl]methyl]-3-piperidyl]amino]-2-methyl-pyridazin-3-one]
144	C[C@@H]1CC[C@H](Nc2cnn(C)c(=O)c2Cl)CN1C (stereo in doubt) [Example 27, 4-chloro-5-((1,6-dimethylpiperidin-3-yl)amino)-2-methylpyridazin-3(2H)-one]
312	C/C=C/Cn1ncc(NC2CCCCN(C)C2)c(Cl)c1=O (centres unmarked) [Example 17, (E)-2-(but-2-en-1-yl)-4-chloro-5-((1-methylazepan-3-yl)amino)pyridazin-3(2H)-one]
466	Cn1ncc(NC2CCCN(Cc3nc(-c4ccc(Cl)cc4)no3)C2)c(Cl)c1=O (centres unmarked) [Example 55, 4-chloro-5-[[1-[[3-(4-chlorophenyl)-1,2,4-oxadiazol-5-yl]methyl]-3-piperidyl]amino]-2-methyl-pyridazin-3-one]
178	Cn1ncc(NC2CCCN(Cc3c[nH]cn3)C2)c(Cl)c1=O (centres unmarked) [Example 49, 4-chloro-5-[[1-(1H-imidazol-4-ylmethyl)-3-piperidyl]amino]-2-methyl-pyridazin-3-one]
102	CN1Cc2ccccc2C[C@@H](Nc2cnn(C)c(=O)c2Cl)C1 [Example 39, (R)-4-chloro-2-methyl-5-((2-methyl-2,3,4,5-tetrahydro-1H-benzo[c]azepin-4-yl)amino)pyridazin-3(2H)-one]
165	Cc1c(NC2CCCCN(C)C2)cnn(C)c1=O (centres unmarked) [Example 12, 2,4-dimethyl-5-((1-methylazepan-3-yl)amino)pyridazin-3(2H)-one]
1090	CC(C)n1ncc(NC2CCCCN(C)C2)c(Cl)c1=O (centres unmarked) [Example 14, 4-chloro-2-isopropyl-5-((1-methylazepan-3-yl)amino)pyridazin-3(2H)-one]
51	CN1CCCCC(Nc2cnn(C)c(=O)c2Br)C1 (centres unmarked) [Example 13, 4-bromo-2-methyl-5-((1-methylazepan-3-yl)amino)pyridazin-3(2H)-one]
1020	Cn1ncc(NC2CCCOC2)c(Cl)c1=O (racemic) [Example 11, (racemic)-4-chloro-2-methyl-5-((tetrahydro-2H-pyran-3-yl)amino)pyridazin-3(2H)-one]
421	CN1CCCCC(Nc2cnn(CC3CC3)c(=O)c2Cl)C1 (centres unmarked) [Example 16, 4-chloro-2-(cyclopropylmethyl)-5((1-methylazepan-3-yl)amino)pyridazin-3(2H)-one]
278	Cn1ncc(NC2CCCN(Cc3cc(Cl)cc(Cl)c3)C2)c(Cl)c1=O (centres unmarked) [Example 46, 4-chloro-5-((1-(3,5-dichlorobenzyl)piperidin-3-yl)amino)-2-methylpyridazin-3(2H)-one]
315	COCCN1CCCC(Nc2cnn(C)c(=O)c2Cl)C1 (centres unmarked) [Example 30, 4-chloro-5-((1-(2-methoxyethyl)piperidin-3-yl)amino)-2-methylpyridazin-3(2H)-one]
175	C[C@@H]1CC[C@@H](Nc2cnn(C)c(=O)c2Cl)CN1C (stereo in doubt) [Example 28, 4-chloro-5-((1,6-dimethylpiperidin-3-yl)amino)-2-methylpyridazin-3(2H)-one]

SMILES	IC50 [nM]
CC(C)N1CCCC(Nc2cnn(C)c(=O)c2Cl)C1 (centres unmarked) [Example 32, 4-chloro-5-((1-isopropylpiperidin-3-yl)amino)-2-methylpyridazin-3(2H)-one]	147
CN1[C@@H]2CC[C@H]1C[C@H](Nc1cnn(C)c(=O)c1Cl)C2 [Example 6, 4-chloro-2-methyl-5-(((1R,3s,5S)-8-methyl-8-azabicyclo[3.2.1]octan-3-yl)amino)pyridazin-3(2H)-one]	492
